Results from ChEMBL document CHEMBL5150040, “Bis-aryl-α,β-unsaturated ketone (ABK) chaperonin inhibitors exhibit selective cytotoxicity to colorectal cancer cells that correlates with levels of aberrant HSP60 in the cytosol” (Bioorg Med Chem, 2022).
Active and inactive are the calls of the source. The calls are words filed in the database; no cut-off is given here.

How the values were obtained:
[1] = Inhibition of refolded rhodanese reporter enzyme (unknown origin); design: species or system Homo sapiens
[2] = Cytotoxicity against human FHs74Int cells assessed as reduction in cell viability incubated for 48 hrs by AlamarBlue-based assay; type: toxicity
HT-29 = assay: Cytotoxicity against human HT-29 cells assessed as reduction in cell viability incubated for 48 hrs by AlamarBlue-based assay; type: functional; conditions: HT-29, 48 h
[3] = Inhibition of refolded MDH reporter enzyme (unknown origin); design: species or system Homo sapiens
[4] = Inhibition of Escherichia coli GroEL expressed in NEB-5-alpha Escherichia coli cells/Escherichia coli GroES expressed in Escherichia coli BL21(DE3) cells assessed as inhibition of GroEL/ES-mediated dRho refolding by reporter analysis
DLD-1 = assay: Cytotoxicity against human DLD-1 cells assessed as reduction in cell viability incubated for 48 hrs by AlamarBlue-based assay; type: functional; conditions: DLD-1, 48 h
[5] = Cytotoxicity against human FHC cells assessed as reduction in cell viability incubated for 48 hrs by AlamarBlue-based assay; type: toxicity
HCT-116 [6] = assay: Cytotoxicity against human HCT-116 cells assessed as reduction in cell viability incubated for 48 hrs by AlamarBlue-based assay; type: functional; conditions: HCT-116, 48 h
[7] = Inhibition of Escherichia coli GroEL expressed in NEB-5-alpha Escherichia coli cells/Escherichia coli GroES expressed in Escherichia coli BL21(DE3) cells assessed as inhibition of GroEL/ES-mediated dMDH refolding by reporter analysis
HCT-116 [8] = assay: Cytotoxicity against p53-/- human HCT-116 cells assessed as reduction in cell viability incubated for 48 hrs by AlamarBlue-based assay; type: functional; conditions: HCT-116, 48 h
[9] = Inhibition of human mitochondrial HSP60 expressed in Escherichia coli Rosetta 2 (DE3) cells/human mitochondrial HSP10 expressed in Escherichia coli Rosetta 2 (DE3) pLysS cells assessed as inhibition of […]-mediated dMDH refolding by reporter analysis; type: mitochondria, Mitochondria
[10] = Selectivity index, ratio of CC50 for cytotoxicity against non-cancerous cells to EC50 for cytotoxicity against human HCT-116 cells; type: toxicity, cell-based; conditions: non-cancerous cells versus HCT-116 cells, read-out: Ratio CC50/EC50
HCT-116 [11] = assay: Induction of apoptosis in human HCT-116 cells at 0.1 to 100 uM incubated for 48 hrs by AnnexinV-FITC/PI staining based flow cytometry; type: functional, cell-based; conditions: dose 0.1-100 µM
HCT-116 [12] = assay: Cytotoxicity against human HCT-116 cells assessed as reduction in cell viability incubated for 72 hrs by AlamarBlue-based assay relative to control; type: functional
HCT-116 [13] = assay: Cytotoxicity against human HCT-116 cells assessed as reduction in cell viability at 0.01 to 100 uM by Trypan Blue staining based analysis; type: functional; conditions: dose 0.01-100 µM, time 24-48 hrs, TDE = time-dependent effect
HCT-116 [14] = assay: Induction of necrotic cell death in human HCT-116 cells at 0.1 to 100 uM incubated for 48 hrs by AnnexinV-FITC/PI staining based flow cytometry; type: functional; conditions: dose 0.1-100 µM
Escherichia coli = assay: Inhibition of Escherichia coli GroEL expressed in NEB-5-alpha Escherichia coli cells/Escherichia coli GroES expressed in Escherichia coli BL21(DE3) cells assessed as inhibition of GroEL/ES-mediated dMDH refolding measured after 24 hrs dialysis period by reporter analysis
HCT-116 [15] = assay: Inhibition of clonogenicity in human HCT-116 cells at > 1 uM incubated for 72 hrs followed by incubation in fresh medium for 7 days by crystal violet staining based analysis; type: functional, cell-based
HCT-116 [16] = assay: Inhibition of cell migration in human HCT-116 cells measured after 26 hrs by scratch wound healing assay; type: functional, cell-based; conditions: HCT-116, 26 h
HCT-116 [17] = assay: Cytotoxicity against human HCT-116 cells assessed as reduction in cell viability incubated for 48 hrs by AlamarBlue-based assay relative to control; type: functional

| Structure (SMILES) | IC50 [1] [µM] | IC50 [3] [µM] | IC50 [4] [µM] | IC50 [7] [µM] | IC50 [9] [µM] | EC50 (HCT-116 [16]) [µM] | CC50 at 48 h [2] [µM] | EC50 (HT-29) [µM] | EC50 (DLD-1) [µM] | CC50 at 48 h [5] [µM] | EC50 (HCT-116 [6]) [µM] | EC50 (HCT-116 [8]) [µM] | selectivity ratio [10] | Activity (HCT-116 [11]) | Activity (HCT-116 [12]) [%] | Activity (HCT-116 [13]) | Activity (HCT-116 [14]) | inhibition (Escherichia coli) | inhibition (HCT-116 [15]) | Activity (HCT-116 [17]) [%] |
| --- | --- | --- | --- | --- | --- | --- | --- | --- | --- | --- | --- | --- | --- | --- | --- | --- | --- | --- | --- | --- |
| CC(=O)Nc1ccc(C(=O)/C=C/c2cccc([N+](=O)[O-])c2)cc1 | > 100 | > 63 | 7 | 2.1 | 7.7 |  | 12 | 2 | 6.3 | 15 | 1.7 | 1.8 | 7.9 |  |  |  |  |  |  |  |
| CC(=O)Nc1ccc(C(=O)/C=C/c2ccco2)cc1 | > 100 | > 63 | 67 | 41 | 44 |  | 99 | 88 | 84 | > 100 | 56 | 72 | 1.8 |  |  |  |  |  |  |  |
| O=C(/C=C/c1cccc([N+](=O)[O-])c1)c1ccc(NC(=O)c2ccco2)cc1 | > 100 | > 63 | 2.2 | 0.73 | 2.5 |  | 54 | 3.5 | 22 | > 100 | 3.4 | 4.1 | 23 | Active | 100 | Tde | Active | Active | Active |  |
| O=C(/C=C/c1ccc([N+](=O)[O-])cc1)c1ccc(O)c(O)c1 | 45 | > 63 | 1.3 | 2 | 6.2 |  | 11 | 8.2 | 9.6 | 28 | 5.8 | 6.1 | 3.4 |  |  |  |  |  |  |  |
| O=C(/C=C/c1ccco1)c1ccc(NC(=O)c2ccccc2)cc1 | > 100 | > 63 | 37 | 21 | 20 |  | > 100 | 76 | 69 | > 100 | 42 | 59 | 2.4 |  |  |  |  |  |  |  |
| O=C(/C=C/c1cccc([N+](=O)[O-])c1)c1ccc(NC(=O)c2cccs2)cc1 | > 100 | > 63 | 1.5 | 0.41 | 2.2 | 13 | 24 | 2.5 | 11 | 73 | 2.6 | 2.5 | 19 | Active |  | Tde | Active |  | Active | 100 |
| O=C(/C=C/c1cccc([N+](=O)[O-])c1)c1ccc(NC(=O)c2ccccc2)cc1 | > 100 | > 63 | 3.1 | 0.71 | 2.3 |  | > 100 | 3.9 | > 100 | > 100 | 4.1 | 25 | 24 |  |  |  |  |  |  |  |
| O=C(/C=C/c1ccco1)c1ccc(NC(=O)c2cccs2)cc1 | > 100 | > 63 | 9.7 | 6.7 | 12 |  | 68 | 50 | 56 | 93 | 33 | 45 | 2.4 |  |  |  |  |  |  |  |
| Nc1ccc(C(=O)/C=C/c2ccco2)cc1 | 55 | 46 | 12 | 5.9 | 9.8 |  | 86 | 28 | 31 | 90 | 21 | 24 | 4.2 |  |  |  |  |  |  |  |

Continued, in another order:

| IC50 [1] [µM] | IC50 [3] [µM] | IC50 [4] [µM] | IC50 [7] [µM] | IC50 [9] [µM] | EC50 (HCT-116 [16]) [µM] | Structure (SMILES) | CC50 at 48 h [2] [µM] | EC50 (HT-29) [µM] | EC50 (DLD-1) [µM] | CC50 at 48 h [5] [µM] | EC50 (HCT-116 [6]) [µM] | EC50 (HCT-116 [8]) [µM] | selectivity ratio [10] | Activity (HCT-116 [11]) | Activity (HCT-116 [12]) [%] | Activity (HCT-116 [13]) | Activity (HCT-116 [14]) | inhibition (Escherichia coli) | inhibition (HCT-116 [15]) | Activity (HCT-116 [17]) [%] |
| --- | --- | --- | --- | --- | --- | --- | --- | --- | --- | --- | --- | --- | --- | --- | --- | --- | --- | --- | --- | --- |
| > 100 | > 63 | 39 | 20 | 21 |  | O=C(/C=C/c1ccc(O)cc1)c1ccccc1 [4-HYDROXYCHALCONE] | 97 | 39 | 51 | > 100 | 32 | 32 | 3.1 |  |  |  |  |  |  |  |
| > 100 | > 63 | 46 | 27 | 22 |  | COc1ccc(/C=C/C(=O)c2ccccc2)cc1 [4-METHOXY CHALCONE] | 91 | 32 | 52 | 99 | 22 | 30 | 4.4 |  |  |  |  |  |  |  |
| > 100 | > 63 | 135 | 57 | 43 |  | Nc1ccc(C(=O)/C=C/c2ccccc2)cc1 | 97 | 35 | 33 | > 100 | 27 | 23 | 3.7 |  |  |  |  |  |  |  |
| > 100 | > 63 | 61 | 20 | 21 |  | O=C(/C=C/c1ccccc1)c1ccc(O)cc1 [4'-HYDROXYCHALCONE] | 65 | 30 | 34 | 82 | 20 | 21 | 3.7 |  |  |  |  |  |  |  |
| > 100 | > 63 | 27 | 4.3 | 5.9 |  | O=C(/C=C/c1ccccc1)c1ccc(NC(=O)c2ccccc2)cc1 | 60 | 36 | 46 | 73 | 17 | 28 | 3.9 |  |  |  |  |  |  |  |
| > 100 | > 63 | > 250 | > 100 | > 100 |  | O=C(CCc1ccccc1)c1ccccc1 | > 100 | > 100 | > 100 | > 100 | > 100 | > 100 |  |  |  |  |  |  |  |  |
| > 100 | > 63 | 34 | 13 | 16 |  | COc1ccc(C(=O)/C=C/c2ccccc2)cc1 [4'-METHOXYCHALCONE] | 37 | 23 | 35 | 62 | 16 | 17 | 3.2 |  |  |  |  |  |  |  |
| > 100 | > 63 | 27 | 7.1 | 8.6 |  | O=C(/C=C/c1ccccc1)c1ccccc1 [CHALCONE] | 46 | 14 | 25 | 71 | 9.5 | 11 | 6.2 |  |  |  |  |  |  |  |
| > 100 | > 63 | 40 | 9.4 | 14 |  | CC(=O)Nc1ccc(C(=O)/C=C/c2ccccc2)cc1 | 58 | 13 | 28 | 86 | 11 | 11 | 6.7 |  |  |  |  |  |  |  |
| > 100 | > 63 | > 250 | > 100 | > 100 |  | O=C(NCc1ccccc1)c1ccccc1 | > 100 | > 100 | > 100 | > 100 | > 100 | > 100 |  |  |  |  |  |  |  |  |
| > 100 | > 63 | 20 | 3.8 | 4.7 |  | O=C(/C=C/c1ccccc1)c1ccc(NC(=O)c2cccs2)cc1 | 40 | 28 | 35 | 83 | 12 | 16 | 4.9 |  |  |  |  |  |  |  |
| > 100 | > 63 | > 250 | > 100 | > 100 |  | OC(/C=C/c1ccccc1)c1ccccc1 (stereo unspecified) | > 100 | > 100 | > 100 | > 100 | > 100 | > 100 |  |  |  |  |  |  |  |  |
